Experimental data as given in patent US20200096503A1, “CELL MEMBRANE COATED MAGNETIC NANOPARTICLES AND ASSAYS FOR IDENTIFICATION OF TRANSMEMBRANE PROTEIN-BINDING COMPOUNDS” (The Board of Trustees of The University of Alabama, priority 2018, published 2020).

What was measured:
TrkB receptors [1] = molecular target: T1, TrkB receptors (Homo sapiens, UniProt Q16620); test: Fishing experiments with CMNPs with immobilized TrkB receptors, artificial mixture; assay type: binding; conditions: equimolar (100 nM) mixture, HPLC-ESI-MS of washing and elution profiles
T1 construct: expressed in transfected cells; host or cells: SH-SY5Y neuroblastoma cells stably overexpressing TrkB
Method: Functional TrkB receptors (example of tyrosine kinase receptors) were immobilized on nanoparticles using the CMNPs technology described herein. Neuroblastoma SH-SY5Y cell line stably overexpressing TrkB receptors were used. Cell membrane fragments and nanoparticles used in the preparation of CMNPs were obtained using the previously optimized protocols, as described for the nicotinic receptors.
The fishing experiments were performed using the procedure previously optimized and described herein for nicotinic receptors. Washing and elution steps were performed using solvents previously reported for nicotinic receptor experiments. The difference between nicotinic and TrkB receptor experiments was with the type of artificial mixture components.

TrkB receptors [2] = molecular target: T1, TrkB receptors; test: Conversion of ATP to ADP by immobilized TrkB receptors on CMNPs (HPLC-ESI-MS); assay type: biochemical; conditions: for conversion of ATP to ADP by CMNPs with TrkB receptors: 5 mM ATP, 100 μM activator
Method: To further test the activity of the immobilized TrkB receptors, additional experiments that focused on determining the ability of the immobilized receptors to convert ATP to ADP were performed, a process commonly performed by all types of tyrosine kinase receptors. Tyrosine kinases, when active, convert ATP to ADP as they use phosphate groups to phosphorylate targeted proteins in the process of signal transduction inside a cell. […] 37° C.

[3] = system: negative control CMNPs prepared with the parental SH-SY5Y cell line without TrkB receptors; test: Fishing with negative control CMNPs prepared with the parental SH-SY5Y cell line without TrkB receptors; assay type: binding
Excerpt: The use of negative control CMNPs prepared with the parental SH-SY5Y cell line without TrkB receptors allowed discernment between specific and non-specific interactions. […] Compounds interacting only with CMNPs expressing TrkB receptors and not interacting with negative control CMNPs are specifically binding with TrkB receptors.

nicotinic receptors = test: Ligand fishing with CMNPs with immobilized nicotinic receptors, artificial mixture of known binders and non-binders; assay type: binding; conditions: equimolar (100 nM) artificial mixture; three washes with ammonium acetate buffer; elution buffer:methanol (9:1, v/v)
Method: Fishing experiments can be used to evaluate the CMNP assay. As an example, CMNPs were constructed with immobilized nicotinic receptors. Parameters include selectivity, detection limit, stability, and reuse of CMNPs. The assay or fishing experiment (FIG. 3A) involves magnetic separation of CMNPs with bound compounds after 20 min incubation in an artificial mixture of known binders and nonbinders. After 3 washes with buffer, receptor-bound compounds are released during the elution process. Eluted compounds can be analyzed by high-performance liquid chromatography coupled with diode-array detection and electrospray ionization tandem mass spectrometry (HPLC-DAD-MS).
(§1) Screening experiments can be conducted with samples of various level of complexity (artificial mixtures, natural extracts with known binders). First, artificial mixtures of known binders and non-binders can be used to evaluate selectivity. In a particular example, CMNPs containing nicotinic receptors were prepared. An artificial equimolar (100 nM) mixture of known binders and non-binders was also prepared. Known binders included known nicotinic receptor binders: nicotine (#1), anabasine (#2), cytisine (#3) and non-binders: butyrylcholine iodide (#4), berberine (#5), warfarin (#6) and caffeic acid (#7). First, the CMNPs (˜10^9) were placed in 0.5 mL artificial mixture and incubated. CMNPs were subsequently washed three times with ammonium acetate buffer. After washing, CMNPs were eluted with a buffer:methanol (9:1, v/v) mixture. In both the washing and elution steps, CMNPs were separated from supernatant using a magnet.

[4] = system: CMNPs prepared using parental HEK cell line not expressing nicotinic receptors; test: Fishing with negative control CMNPs prepared from parental HEK cell line not expressing nicotinic receptors; assay type: binding; conditions: fishing experiments, data not shown
Method: as §1
As an example, CMNPs containing nicotinic receptors were used to screen a different set of potential binders in a crude mixture: that of tobacco smoke condensates (FIG. 5). The results obtained with nicotinic receptor CMNPs were compared with those obtained for negative control CMNPs. […] Therefore, the only difference between nicotinic and negative control CMNPs is the absence of nicotinic receptors in control CMNPs. After three washes with ammonium acetate buffer, the CMNPs were eluted using first ammonium acetate buffer:methanol mixture (9:1, v/v; elutions 1-3), and then ammonium acetate buffer methanol mixture (1:9, v/v, elution 4).

T1 sequence (Q16620 32-822): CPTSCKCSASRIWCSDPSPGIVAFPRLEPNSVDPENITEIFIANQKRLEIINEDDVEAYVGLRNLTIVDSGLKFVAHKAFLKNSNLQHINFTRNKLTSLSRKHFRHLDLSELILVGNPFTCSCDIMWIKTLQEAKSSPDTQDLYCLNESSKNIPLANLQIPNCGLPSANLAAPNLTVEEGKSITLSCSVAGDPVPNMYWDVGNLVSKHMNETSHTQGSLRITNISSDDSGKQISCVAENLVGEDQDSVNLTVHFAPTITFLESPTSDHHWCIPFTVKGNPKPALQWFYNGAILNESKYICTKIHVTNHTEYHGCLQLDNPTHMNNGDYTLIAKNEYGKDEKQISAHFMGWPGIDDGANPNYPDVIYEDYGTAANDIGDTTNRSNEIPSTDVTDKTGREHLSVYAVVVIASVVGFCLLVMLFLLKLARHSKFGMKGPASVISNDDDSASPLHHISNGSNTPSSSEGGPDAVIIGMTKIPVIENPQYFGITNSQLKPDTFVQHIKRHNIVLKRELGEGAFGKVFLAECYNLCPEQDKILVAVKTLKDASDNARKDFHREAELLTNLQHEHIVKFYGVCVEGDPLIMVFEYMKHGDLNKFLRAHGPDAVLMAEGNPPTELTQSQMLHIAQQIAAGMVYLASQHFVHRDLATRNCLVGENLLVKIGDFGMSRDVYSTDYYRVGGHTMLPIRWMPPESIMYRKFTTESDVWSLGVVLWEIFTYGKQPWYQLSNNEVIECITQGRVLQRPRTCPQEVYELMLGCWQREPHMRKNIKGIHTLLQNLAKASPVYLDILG

Structure (SMILES) | retention by CMNPs with immobilized nicotinic receptors (washing/elution, HPLC) (nicotinic receptors) | nonspecific binding to CMNPs from parental HEK cell line not expressing nicotinic receptors [4] | other results
O=c1cc(-c2ccccc2)oc2c(O)c(O)ccc12 [7,8-dihydroxyflavone] | – | – | retention by / interaction with CMNPs with immobilized TrkB receptors (TrkB receptors [1]): interacted only with CMNPs with TrkB receptors; retention by / interaction with CMNPs with immobilized TrkB receptors (TrkB receptors [1]; listed as 7,8-DHF): retained; conversion of ATP to ADP by CMNPs with TrkB receptors (TrkB receptors [2]; 24-hour incubation, 4° C.): almost complete conversion of ATP to ADP; conversion of ATP to ADP by CMNPs with TrkB receptors (TrkB receptors [2]; 30 and 60 min, 37° C.): progressing conversion of ATP to ADP; conversion of ATP to ADP by nanoparticles themselves (structures inside CMNPs) (TrkB receptors [2]; nanoparticles without cell membrane, ATP (5 mM), activator 100 μM): did not lead to the conversion of ATP to ADP; interaction with negative control CMNPs without TrkB receptors [3]: no interaction
c1cncc([C@@H]2CCCCN2)c1 [anabasine] | selectively retained | lack of nonspecific binding | –
COc1ccc2cc3[n+](cc2c1OC)CCc1cc2c(cc1-3)OCO2 [berberine] | absence | – | –
CCCC(=O)OCC[N+](C)(C)C.[I-] [butyrylcholine, butyrylcholine iodide] | absence | – | –
O=C(O)/C=C/c1ccc(O)c(O)c1 [caffeic acid] | absence | – | –
O=c1cccc2n1C[C@@H]1CNC[C@H]2C1 [cytisine] | selectively retained | lack of nonspecific binding | –
CN1CCCC1c1cccnc1 (stereo not drawn) [nicotine] | selectively retained | lack of nonspecific binding | retention by / interaction with CMNPs with immobilized TrkB receptors (TrkB receptors [1]): retained small amount; retention by / interaction with CMNPs with immobilized TrkB receptors (TrkB receptors [1]; listed as Nicotine): interacted both with CMNPs with and without TrkB receptors; interaction with negative control CMNPs without TrkB receptors [3]: interacted both with CMNPs with and without TrkB receptors
